For one assay, the system named is Botrytis cinerea. As to the kind of experiment: Microtest: activity against the grey mold pathogen Botrytis cinerea (micro titer plate, absorption 405 nm, 7 days). Format: cell-based. The following applies: single compound, 7 days after inoculation.
For another assay, the system named is Pyricularia oryzae. Format: cell-based. Particulars: single compound, 7 days after inoculation.

Where two headings read alike, the source gives them in different places.

For the molecule `COc1cc(CCNc2ncnc3c(F)ccc(F)c23)ccc1Oc1cc(C(F)(F)F)ccn1` [I-18, (5,8-Difluoro-quinazolin-4-yl)-{2-[4-(4-trifluoromethyl-pyridin-2-yloxy)-3-methoxy-phenyl]-ethyl}-amine], the Observed efficacy came out at 4% in the assay on Botrytis cinerea (4 ppm) and 57% in the assay on Pyricularia oryzae (4 ppm).

`COc1cc(CCNc2ncnc3c(F)cc(F)c(F)c23)ccc1Oc1cc(C(F)(F)F)ccn1` [I-19, (5,6,8-Trifluoro-quinazolin-4-yl)-{2-[4-(4-trifluoromethyl-pyridin-2-yloxy)-3-methoxy-phenyl]-ethyl}-amine] showed an Observed efficacy in the assay with Botrytis cinerea (1 ppm) of 12%.

On to `COc1cc(CCNc2ncnc3c(F)ccc(F)c23)ccc1Oc1ncc(C(F)(F)F)cc1Cl` [I-17, (5,8-Difluoro-quinazolin-4-yl)-{2-[4-(3-chloro-5-trifluoromethyl-pyridin-2-yloxy)-3-methoxy-phenyl]-ethyl}-amine], for which the Observed efficacy is on record as 5% in the assay with Botrytis cinerea (4 ppm) and 56% in the assay with Pyricularia oryzae (4 ppm).

Regarding `Fc1ccc(F)c2c(NCCc3ccc(Oc4cc(C(F)(F)F)ccn4)cc3)ncnc12` [I-5, (5,8-Difluoro-quinazolin-4-yl)-{2-[4-(4-trifluoromethyl-pyridin-2-yloxy)-phenyl]-ethyl}-amine], the Observed efficacy turned out to be 14% in the assay with Botrytis cinerea (1 ppm) and 58% in the assay on Pyricularia oryzae (4 ppm).

For `Cn1cc(C(=O)Nc2ccccc2-c2cc(F)c(F)c(F)c2)c(C(F)F)n1` [Fluxapyroxad, reference compound], in the assay on Botrytis cinerea (0.063 ppm), the Observed efficacy stood at 29%.

`Fc1cccc([C@@]2(Cn3ncnc3S)O[C@@H]2c2ccccc2Cl)c1` (relative stereo) [II-1, 2-[rel-(2S;3R)-3-(2-chlorophenyl)-2-(3-fluorophenyl)-oxiranylmethyl]-2H-[1,2,4]triazole-3-thiol]: the Observed efficacy in the assay on Botrytis cinerea (16 ppm) was 8%; in the assay on Botrytis cinerea (63 ppm), 24%; in the assay on Pyricularia oryzae (63 ppm), 27%.

The record behind these values is patent publication US20130035229A1 (priority 2010, published 2013).
